Data: patent US9382197B2, “Substituted hydroxamic acids and uses thereof” (Millennium Pharmaceuticals, Inc., priority 2010, dated 2016)

Biological target: T1, purified human HDAC6 (Homo sapiens, UniProt Q9UBN7)
T1 construct: purchased BPS Bioscience 5006
T1 sequence (Q9UBN7 1-1215): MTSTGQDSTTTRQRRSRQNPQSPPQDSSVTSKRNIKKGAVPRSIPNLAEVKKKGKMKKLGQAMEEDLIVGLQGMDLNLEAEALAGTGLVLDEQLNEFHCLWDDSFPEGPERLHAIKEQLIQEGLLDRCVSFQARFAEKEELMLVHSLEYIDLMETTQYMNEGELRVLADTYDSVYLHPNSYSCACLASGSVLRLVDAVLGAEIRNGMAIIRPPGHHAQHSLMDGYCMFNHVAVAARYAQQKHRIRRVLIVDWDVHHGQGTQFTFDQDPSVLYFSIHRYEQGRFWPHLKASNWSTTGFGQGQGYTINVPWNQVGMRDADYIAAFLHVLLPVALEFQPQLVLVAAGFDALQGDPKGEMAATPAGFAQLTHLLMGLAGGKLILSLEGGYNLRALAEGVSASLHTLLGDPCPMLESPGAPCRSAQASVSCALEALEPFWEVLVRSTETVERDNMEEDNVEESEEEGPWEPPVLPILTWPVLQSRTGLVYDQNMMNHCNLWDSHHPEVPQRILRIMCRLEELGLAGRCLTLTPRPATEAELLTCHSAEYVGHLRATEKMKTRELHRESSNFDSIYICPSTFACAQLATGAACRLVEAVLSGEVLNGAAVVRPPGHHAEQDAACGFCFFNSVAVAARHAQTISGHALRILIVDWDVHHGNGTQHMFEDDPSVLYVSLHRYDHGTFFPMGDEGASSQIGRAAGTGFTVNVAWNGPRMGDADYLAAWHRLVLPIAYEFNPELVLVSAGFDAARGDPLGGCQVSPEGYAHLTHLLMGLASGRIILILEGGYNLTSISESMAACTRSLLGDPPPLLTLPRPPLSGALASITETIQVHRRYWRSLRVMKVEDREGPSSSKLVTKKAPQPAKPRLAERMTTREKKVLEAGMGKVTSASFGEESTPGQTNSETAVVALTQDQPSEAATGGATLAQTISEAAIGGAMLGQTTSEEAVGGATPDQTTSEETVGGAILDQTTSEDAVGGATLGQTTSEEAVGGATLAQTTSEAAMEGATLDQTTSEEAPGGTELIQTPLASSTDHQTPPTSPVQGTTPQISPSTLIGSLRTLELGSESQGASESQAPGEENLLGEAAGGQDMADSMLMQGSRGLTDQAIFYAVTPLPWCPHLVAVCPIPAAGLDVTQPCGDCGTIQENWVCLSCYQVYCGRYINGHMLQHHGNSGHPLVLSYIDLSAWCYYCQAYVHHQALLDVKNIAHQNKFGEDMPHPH
Experiment: HDAC6 Enzyme Assay
Assay type: biochemical
Summary of the method: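 Purified human HDAC6 incubated 1 h at 30 °C with Ac-Arg-Gly-Lys(Ac)-AMC and compound; trichostatin A stop, trypsin release of AMC, fluorescence Ex 340/Em 460 nm. IC50 from concentration–response relative to DMSO.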

[1] = purified human HDAC6, substrate Ac-Arg-Gly-Lys(Ac)-AMC, 1 hour at 30° C., reported as bins

IC50 [1] [nM] | Compound | further results
< 100 | CC(C)[C@@H](NC(=O)Nc1ccccc1-c1ccccc1)c1ccc(C(=O)NO)cc1 [Compound I-515, 4-((1R)-1-{[(biphenyl-2-ylamino)carbonyl]amino}-2-methylpropyl)-N-hydroxybenzamide] | 
< 100 | COc1cccc(C(=O)NC(C)c2ccc(C(=O)NO)cc2)c1 (stereo not drawn) [Compound I-225, N-(1-{4-[(hydroxyamino)carbonyl]phenyl}ethyl)-3-methoxybenzamide] | 
100 to 500 | Cc1nn(C)cc1C(=O)NC(c1ccc(C(=O)NO)cc1)C(C)(C)C (stereo not drawn) [Compound I-86, N-(1-{4-[(hydroxyamino)carbonyl]phenyl}-2,2-dimethylpropyl)-1,3-dimethyl-1H-pyrazole-4-carboxamide] | 
< 100 | CC(NC(=O)c1cc2ccccc2o1)c1ccc(C(=O)NO)cc1 (stereo not drawn) [Compound I-207, N-(1-{4-[(hydroxyamino)carbonyl]phenyl}ethyl)-1-benzofuran-2-carboxamide] | 
100 to 500 | Cc1ccc2[nH]c(C(=O)NC(C)c3cccc(C(=O)NO)c3)cc2c1 (stereo not drawn) [Compound I-342, N-(1-{3-[(hydroxyamino)carbonyl]phenyl}ethyl)-5-methyl-1H-indole-2-carboxamide] | 
< 100 | Cc1c(C(=O)N[C@H](C)c2ccc(C(=O)NO)cc2)oc2ccccc12 [Compound I-237, N-((1R)-1-{4-[(hydroxyamino)carbonyl]phenyl}ethyl)-3-methyl-1-benzofuran-2-carboxamide] | 
100 to 500 | CC(C)(C)C(NC(=O)c1ccc(-c2ccccc2)cc1)c1ccc(C(=O)NO)cc1 (stereo not drawn) [Compound I-355, N-(1-{4-[(hydroxyamino)carbonyl]phenyl}-2,2-dimethylpropyl)biphenyl-4-carboxamide] | 
100 to 500 | Cn1cccc1C(=O)NC(c1ccc(C(=O)NO)cc1)C(C)(C)C (stereo not drawn) [Compound I-133, N-(1-{4-[(hydroxyamino)carbonyl]phenyl}-2,2-dimethylpropyl)-1-methyl-1H-pyrrole-2-carboxamide] | 
< 100 | CCC[C@@H](NC(=O)c1ccc(-c2ccccc2)cc1)c1ccc(C(=O)NO)cc1 [Compound I-274, N-((1R)-1-{4-[(hydroxyamino)carbonyl]phenyl}butyl)biphenyl-4-carboxamide] | 
100 to 500 | Cc1[nH]c2c(C)ccc(C)c2c1CC(=O)NC(c1ccc(C(=O)NO)cc1)C(C)C (stereo not drawn) [Compound I-220, N-hydroxy-4-(2-methyl-1-{[(2,4,7-trimethyl-1H-indol-3-yl)acetyl]amino}propyl)benzamide] | 
100 to 500 | Cc1cccc(C)c1NC(=O)NC(C)c1ccc(C(=O)NO)cc1 (stereo not drawn) [Compound I-156, 4-[1-({[(2,6-dimethylphenyl)amino]carbonyl}amino)ethyl]-N-hydroxybenzamide] | 
< 100 | CC(C)[C@@H](Nc1nc(-c2cc(-c3ccccc3)no2)cs1)c1ccc(C(=O)NO)cc1 [Compound I-519, N-hydroxy-4-((1R)-2-methyl-1-{[4-(3-phenylisoxazol-5-yl)-1,3-thiazol-2-yl]amino}propyl)benzamide] | 

More lines, now with the values behind:

Compound | IC50 [1] [nM] | further results
CC(C)(C)CC(=O)NC(c1ccc(C(=O)NO)cc1)C(C)(C)C (stereo not drawn) [Compound I-396, 4-{1-[(3,3-dimethylbutanoyl)amino]-2,2-dimethylpropyl}-N-hydroxybenzamide] |  | IC50 (bin: greater than 1 μM): > 1000 nM
CC(NC(=O)Cc1ccc(F)cc1F)c1ccc(C(=O)NO)cc1 (stereo not drawn) [Compound I-402, 4-(1-{[(2,4-difluorophenyl)acetyl]amino}ethyl)-N-hydroxybenzamide] |  | IC50 (bin: greater than 1 μM): > 1000 nM
Cc1cc(C)c(CC(=O)NC(c2ccc(C(=O)NO)cc2)C(C)C)c(C)c1 (stereo not drawn) [Compound I-28, N-hydroxy-4-{1-[(mesitylacetyl)amino]-2-methylpropyl}benzamide] |  | IC50 (bin: greater than 500 nM and less than 1 μM (lower bound in nM, upper bound in μM)): 500 to 1000 nM
C[C@@H](NC(=O)c1cc2oc(-c3ccccc3)cc2n1C)c1ccc(C(=O)NO)cc1 [Compound I-5, N-((1R)-1-{4-[(hydroxyamino)carbonyl]phenyl}ethyl)-4-methyl-2-phenyl-4H-furo[3,2-b]pyrrole-5-carboxamide] | < 100 | 
CC(NS(=O)(=O)Cc1ccccc1)c1ccc(C(=O)NO)cc1 (stereo not drawn) [Compound I-338, 4-{1-[(benzylsulfonyl)amino]ethyl}-N-hydroxybenzamide] | 100 to 500 | 
CC(NC(=O)c1cc2ccccc2n1C)c1cccc(C(=O)NO)c1 (stereo not drawn) [Compound I-219, N-(1-{3-[(hydroxyamino)carbonyl]phenyl}ethyl)-1-methyl-1H-indole-2-carboxamide] | 100 to 500 | 
CC(NC(=O)Cc1cccc(C(F)(F)F)c1)c1cccc(C(=O)NO)c1 (stereo not drawn) [Compound I-314, N-hydroxy-3-[1-({[3-(trifluoromethyl)phenyl]acetyl}amino)ethyl]benzamide] |  | IC50 (bin: greater than 1 μM): > 1000 nM
CC(NC(=O)CC(C)(C)C)c1ccc(C(=O)NO)cc1 (stereo not drawn) [Compound I-144, 4-{1-[(3,3-dimethylbutanoyl)amino]ethyl}-N-hydroxybenzamide] |  | IC50 (bin: greater than 1 μM): > 1000 nM
Cc1ccc(C2(C(=O)NC(C)c3ccc(C(=O)NO)cc3)CC2)cc1 (stereo not drawn) [Compound I-264, N-hydroxy-4-[1-({[1-(4-methylphenyl)cyclopropyl]carbonyl}amino)ethyl]benzamide] | < 100 | 
Cc1nc2cc(C(=O)NC(C)c3ccc(C(=O)NO)cc3)ccc2s1 (stereo not drawn) [Compound I-230, N-(1-{4-[(hydroxyamino)carbonyl]phenyl}ethyl)-2-methyl-1,3-benzothiazole-5-carboxamide] | < 100 | 
C[C@H](NC(=O)N[C@H](C)c1ccc(C(=O)NO)cc1)c1ccccc1 [Compound I-513, N-hydroxy-4-[(1R)-1-({[(1S)-1-phenylethyl]carbamoyl}amino)ethyl]benzamide] | < 100 | 
CC(C)C(NC(=O)C1(c2ccc(Cl)cc2)CC1)c1ccc(C(=O)NO)cc1 (stereo not drawn) [Compound I-300, 4-[1-({[1-(4-chlorophenyl)cyclopropyl]carbonyl}amino)-2-methylpropyl]-N-hydroxybenzamide] | 100 to 500 | 
CC(NC(=O)c1cc2ccccc2s1)c1cccc(C(=O)NO)c1 (stereo not drawn) [Compound I-97, N-(1-{3-[(hydroxyamino)carbonyl]phenyl}ethyl)-1-benzothiophene-2-carboxamide] | 100 to 500 | 
CC(NC(=O)c1cc2ccccc2o1)c1cccc(C(=O)NO)c1 (stereo not drawn) [Compound I-401, N-(1-{3-[(hydroxyamino)carbonyl]phenyl}ethyl)-1-benzofuran-2-carboxamide] | 100 to 500 | 
CC(C)C(NC(=O)c1cc2ccccc2s1)c1ccc(C(=O)NO)cc1 (stereo not drawn) [Compound I-94, N-(1-{4-[(hydroxyamino)carbonyl]phenyl}-2-methylpropyl)-1-benzothiophene-2-carboxamide] | < 100 | 
CC(C)C(NC(=O)c1ccc(F)cc1)c1ccc(C(=O)NO)cc1 (stereo not drawn) [Compound I-40, 4-fluoro-N-(1-{4-[(hydroxyamino)carbonyl]phenyl}-2-methylpropyl)benzamide] | 100 to 500 | 
CC(C)[C@@H](NC(=O)N[C@@H](C)c1ccccc1)c1ccc(C(=O)NO)cc1 [Compound I-516, N-hydroxy-4-{(1R)-2-methyl-1-[({[(1S)-1-phenylethyl]amino}carbonyl)amino]propyl}benzamide] | < 100 | 
CC(NC(=O)Nc1ccc(OC(F)(F)F)cc1)c1ccc(C(=O)NO)cc1 (stereo not drawn) [Compound I-141, N-hydroxy-4-{1-[({[4-(trifluoromethoxy)phenyl]amino}carbonyl)amino]ethyl}benzamide] | < 100 | 
